Data taken from ChEMBL document CHEMBL3739350, “Novel hydrazone moiety-bearing aminopyrimidines as selective inhibitors of epidermal growth factor receptor T790M mutant” (Eur J Med Chem, 2015).

Experiments:
[1] = tested on: A549; assay: Antiproliferative activity against human A549 cells harboring wild type EGFR/k-Ras mutation after 72 hrs by MTT assay; type: functional, cell-based; conditions: A549, 72 h
[2] = tested on: NCI-H1975; assay: cells; type: functional, cell-based; conditions: Homo sapiens, NCI-H1975, 72 h
[3] = tested on: HT-29; assay: cells; type: functional, cell-based; conditions: Homo sapiens, HT-29, 72 h
Description: Cytotoxicity against human HT-29 cells assessed as inhibition of cell proliferation after 72 hrs by MTT assay

[4] = biological target: Epidermal growth factor receptor (Homo sapiens, UniProt P00533, L858R/T790M); type: protein assay
[5] = biological target: Epidermal growth factor receptor (Homo sapiens, UniProt P00533, DELE746/T790M); type: protein assay
[6] = biological target: Epidermal growth factor receptor (Homo sapiens, UniProt P00533, T790M); type: protein assay
[7] = biological target: Epidermal growth factor receptor (Homo sapiens, UniProt P00533); assay: Inhibition of wild type recombinant human EGFR preincubated for 10 mins followed by FAM-labeled peptide/ATP addition measured after 1 hr by mobility shift assay
Chain of Epidermal growth factor receptor (Homo sapiens, UniProt P00533) (P00533 whole entry): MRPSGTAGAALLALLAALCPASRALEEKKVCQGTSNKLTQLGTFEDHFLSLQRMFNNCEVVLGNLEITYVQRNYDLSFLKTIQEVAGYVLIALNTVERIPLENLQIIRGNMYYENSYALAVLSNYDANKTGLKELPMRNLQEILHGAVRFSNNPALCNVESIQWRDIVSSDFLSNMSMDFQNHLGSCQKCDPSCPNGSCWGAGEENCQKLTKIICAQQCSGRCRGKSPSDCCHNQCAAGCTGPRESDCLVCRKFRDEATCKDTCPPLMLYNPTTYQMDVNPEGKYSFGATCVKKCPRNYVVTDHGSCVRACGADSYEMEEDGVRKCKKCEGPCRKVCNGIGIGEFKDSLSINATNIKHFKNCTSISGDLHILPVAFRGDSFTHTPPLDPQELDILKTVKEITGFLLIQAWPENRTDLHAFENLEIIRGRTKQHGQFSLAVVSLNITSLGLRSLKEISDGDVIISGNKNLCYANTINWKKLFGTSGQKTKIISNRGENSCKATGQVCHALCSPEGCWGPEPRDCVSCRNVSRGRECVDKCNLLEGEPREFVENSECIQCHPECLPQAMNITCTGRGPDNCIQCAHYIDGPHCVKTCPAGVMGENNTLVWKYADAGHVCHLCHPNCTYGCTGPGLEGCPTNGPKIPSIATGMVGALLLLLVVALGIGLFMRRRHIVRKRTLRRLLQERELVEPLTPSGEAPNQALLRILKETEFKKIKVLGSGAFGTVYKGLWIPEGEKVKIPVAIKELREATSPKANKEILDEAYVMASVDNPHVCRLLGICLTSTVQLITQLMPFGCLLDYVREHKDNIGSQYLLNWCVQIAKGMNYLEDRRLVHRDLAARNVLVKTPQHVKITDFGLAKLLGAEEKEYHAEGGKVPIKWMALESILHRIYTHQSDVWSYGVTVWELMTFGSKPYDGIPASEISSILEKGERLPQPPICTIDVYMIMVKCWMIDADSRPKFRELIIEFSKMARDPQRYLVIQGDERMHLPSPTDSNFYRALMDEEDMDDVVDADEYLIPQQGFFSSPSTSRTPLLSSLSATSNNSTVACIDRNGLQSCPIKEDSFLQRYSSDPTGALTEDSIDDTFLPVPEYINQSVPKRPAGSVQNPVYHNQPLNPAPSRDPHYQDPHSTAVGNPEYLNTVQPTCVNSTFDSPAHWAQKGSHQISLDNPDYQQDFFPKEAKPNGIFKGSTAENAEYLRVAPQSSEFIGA

Chain of Epidermal growth factor receptor (Homo sapiens, UniProt P00533, L858R/T790M) (P00533 25-1210 T790M/L858R limits assumed): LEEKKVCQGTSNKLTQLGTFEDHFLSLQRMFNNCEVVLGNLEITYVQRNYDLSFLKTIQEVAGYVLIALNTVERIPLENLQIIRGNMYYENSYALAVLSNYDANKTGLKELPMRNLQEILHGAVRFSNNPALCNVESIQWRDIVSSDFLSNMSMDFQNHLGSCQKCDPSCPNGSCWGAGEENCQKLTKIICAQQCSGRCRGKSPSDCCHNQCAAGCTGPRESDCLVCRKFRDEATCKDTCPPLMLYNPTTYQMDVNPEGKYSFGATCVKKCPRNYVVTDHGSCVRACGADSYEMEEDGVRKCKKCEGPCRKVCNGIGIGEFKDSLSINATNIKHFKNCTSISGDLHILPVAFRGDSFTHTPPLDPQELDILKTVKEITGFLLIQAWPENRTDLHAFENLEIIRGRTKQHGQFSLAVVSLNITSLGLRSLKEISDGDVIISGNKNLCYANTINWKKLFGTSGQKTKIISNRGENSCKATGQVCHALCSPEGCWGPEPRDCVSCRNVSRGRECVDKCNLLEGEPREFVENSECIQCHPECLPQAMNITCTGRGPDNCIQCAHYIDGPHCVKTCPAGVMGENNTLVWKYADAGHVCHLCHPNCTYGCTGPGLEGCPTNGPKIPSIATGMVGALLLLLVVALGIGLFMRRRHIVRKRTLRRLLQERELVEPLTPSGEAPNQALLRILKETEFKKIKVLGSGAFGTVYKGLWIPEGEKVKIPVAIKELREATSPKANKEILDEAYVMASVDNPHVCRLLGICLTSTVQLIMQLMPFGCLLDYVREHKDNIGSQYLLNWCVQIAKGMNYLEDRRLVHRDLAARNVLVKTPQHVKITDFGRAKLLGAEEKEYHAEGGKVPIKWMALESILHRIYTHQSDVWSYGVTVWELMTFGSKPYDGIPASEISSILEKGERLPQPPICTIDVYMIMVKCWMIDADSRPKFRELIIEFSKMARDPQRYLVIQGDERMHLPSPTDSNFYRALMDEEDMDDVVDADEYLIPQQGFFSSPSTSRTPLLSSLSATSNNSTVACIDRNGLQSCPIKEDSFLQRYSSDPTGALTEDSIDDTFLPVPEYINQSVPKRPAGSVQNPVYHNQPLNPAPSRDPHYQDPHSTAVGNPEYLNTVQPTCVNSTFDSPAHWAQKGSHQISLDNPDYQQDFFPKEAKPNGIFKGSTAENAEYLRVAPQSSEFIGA
Chain of Epidermal growth factor receptor (Homo sapiens, UniProt P00533, DELE746/T790M) (P00533 whole entry E746del/T790M, looked up): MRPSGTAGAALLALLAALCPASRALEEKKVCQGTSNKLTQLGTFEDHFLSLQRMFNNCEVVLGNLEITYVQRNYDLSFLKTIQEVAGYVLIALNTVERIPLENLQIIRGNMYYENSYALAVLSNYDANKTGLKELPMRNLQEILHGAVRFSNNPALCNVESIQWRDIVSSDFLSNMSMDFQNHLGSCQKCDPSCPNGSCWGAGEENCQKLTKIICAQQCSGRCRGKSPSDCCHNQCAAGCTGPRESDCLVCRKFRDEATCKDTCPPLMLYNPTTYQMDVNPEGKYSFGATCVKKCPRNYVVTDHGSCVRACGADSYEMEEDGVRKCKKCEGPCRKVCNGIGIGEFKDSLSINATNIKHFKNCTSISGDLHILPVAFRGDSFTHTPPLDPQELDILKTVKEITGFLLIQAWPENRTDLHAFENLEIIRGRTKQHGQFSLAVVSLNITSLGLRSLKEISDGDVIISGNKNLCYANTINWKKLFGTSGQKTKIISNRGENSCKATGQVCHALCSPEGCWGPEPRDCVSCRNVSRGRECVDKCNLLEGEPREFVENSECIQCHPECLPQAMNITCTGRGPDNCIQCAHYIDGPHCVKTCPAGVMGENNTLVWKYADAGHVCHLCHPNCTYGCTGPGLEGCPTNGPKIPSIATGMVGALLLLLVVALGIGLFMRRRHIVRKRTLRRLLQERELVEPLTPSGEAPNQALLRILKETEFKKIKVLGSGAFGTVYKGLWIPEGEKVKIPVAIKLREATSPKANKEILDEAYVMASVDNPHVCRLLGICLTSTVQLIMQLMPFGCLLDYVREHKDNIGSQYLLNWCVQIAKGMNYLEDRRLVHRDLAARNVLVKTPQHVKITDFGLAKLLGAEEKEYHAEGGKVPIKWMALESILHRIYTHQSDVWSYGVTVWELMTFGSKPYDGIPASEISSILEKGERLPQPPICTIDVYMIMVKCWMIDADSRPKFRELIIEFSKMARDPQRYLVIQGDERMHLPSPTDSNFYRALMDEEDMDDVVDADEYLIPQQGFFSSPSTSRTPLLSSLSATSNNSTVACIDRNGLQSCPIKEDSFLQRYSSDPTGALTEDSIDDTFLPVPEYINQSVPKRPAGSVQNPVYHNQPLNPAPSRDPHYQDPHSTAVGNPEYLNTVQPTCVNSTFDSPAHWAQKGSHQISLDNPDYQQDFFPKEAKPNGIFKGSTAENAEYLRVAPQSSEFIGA
Chain of Epidermal growth factor receptor (Homo sapiens, UniProt P00533, T790M) (P00533 25-1210 T790M limits assumed): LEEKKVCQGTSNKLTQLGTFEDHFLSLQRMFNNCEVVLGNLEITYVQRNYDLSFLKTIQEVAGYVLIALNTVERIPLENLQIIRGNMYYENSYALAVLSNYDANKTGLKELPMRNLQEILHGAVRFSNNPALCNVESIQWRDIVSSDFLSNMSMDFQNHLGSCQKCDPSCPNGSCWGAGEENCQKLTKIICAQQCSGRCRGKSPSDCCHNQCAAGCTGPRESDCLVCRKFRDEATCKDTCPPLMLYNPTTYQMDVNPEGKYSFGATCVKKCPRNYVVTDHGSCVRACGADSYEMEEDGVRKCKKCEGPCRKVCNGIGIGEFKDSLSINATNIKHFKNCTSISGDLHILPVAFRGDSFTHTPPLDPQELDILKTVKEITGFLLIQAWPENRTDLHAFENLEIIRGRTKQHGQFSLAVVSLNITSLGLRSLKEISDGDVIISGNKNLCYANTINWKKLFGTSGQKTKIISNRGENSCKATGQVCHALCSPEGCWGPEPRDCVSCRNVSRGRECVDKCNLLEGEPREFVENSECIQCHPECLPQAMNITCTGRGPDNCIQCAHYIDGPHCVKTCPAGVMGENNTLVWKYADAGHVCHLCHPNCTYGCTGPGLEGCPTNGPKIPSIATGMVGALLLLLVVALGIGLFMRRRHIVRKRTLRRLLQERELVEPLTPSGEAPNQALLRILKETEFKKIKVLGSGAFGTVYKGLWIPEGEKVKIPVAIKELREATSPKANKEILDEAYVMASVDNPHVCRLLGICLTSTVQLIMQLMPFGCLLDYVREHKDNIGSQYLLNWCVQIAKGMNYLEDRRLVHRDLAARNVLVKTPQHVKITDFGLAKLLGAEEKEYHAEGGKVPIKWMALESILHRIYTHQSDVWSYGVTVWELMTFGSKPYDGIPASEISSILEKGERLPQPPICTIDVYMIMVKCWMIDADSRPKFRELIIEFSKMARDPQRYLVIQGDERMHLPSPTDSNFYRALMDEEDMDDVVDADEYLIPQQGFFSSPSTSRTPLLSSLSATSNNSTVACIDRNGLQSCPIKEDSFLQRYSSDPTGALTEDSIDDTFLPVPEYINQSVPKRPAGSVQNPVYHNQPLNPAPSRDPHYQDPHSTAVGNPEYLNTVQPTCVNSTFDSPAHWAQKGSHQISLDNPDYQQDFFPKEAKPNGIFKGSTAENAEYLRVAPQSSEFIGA

SMILES | IC50 [1] | IC50 [2] | IC50 [3] | IC50 [4] | IC50 [5] | IC50 [6] | IC50 [7]
C=CC(=O)Nc1cccc(Nc2nc(N/N=C(\C)c3ccc(F)cc3)ncc2Cl)c1 | 8.2 µM | 0.39 µM | 5.05 µM | 1.68 µM | 1.29 µM | 2.53 µM | > 20 µM
CN(C)C/C=C/C(=O)Nc1cccc(Nc2nc(N/N=C/c3ccc(F)cc3F)ncc2Cl)c1 | 2.17 µM | 0.17 µM | 2.92 µM | 2.52 µM | 5.11 µM | 2.51 µM | > 20 µM
C/C(=N\Nc1ncc(Cl)c(Nc2cccc(NC(=O)/C=C/CN(C)C)c2)n1)c1cccnc1 | 17.3 µM | 2.35 µM | 9.66 µM | 4.32 µM | – | – | > 20 µM
CN(C)C/C=C/C(=O)Nc1cccc(Nc2nc(N/N=C/c3cn(Cc4ccccc4)c4ccccc34)ncc2Cl)c1 | 2.91 µM | 0.26 µM | 2.12 µM | 0.88 µM | 0.76 µM | 0.79 µM | > 20 µM
C=CC(=O)Nc1cccc(Nc2nc(N/N=C(\C)c3ccc(F)cc3F)ncc2Cl)c1 | 1.63 µM | 0.3 µM | 4.36 µM | 2.27 µM | – | – | 11.8 µM
C/C(=N\Nc1ncc(Cl)c(Nc2cccc(NC(=O)/C=C/CN(C)C)c2)n1)c1ccncc1 | 34.9 µM | 6.24 µM | 10.9 µM | – | – | – | –
C=CC(=O)Nc1cccc(Nc2nc(N/N=C/c3ccc(F)cc3F)ncc2Cl)c1 | 11.2 µM | 0.38 µM | 4.76 µM | 11.6 µM | – | – | > 20 µM
C=CC(=O)Nc1cccc(Nc2nc(N/N=C(\C)c3ccc(OC)cc3)ncc2Cl)c1 | 7.71 µM | 1.06 µM | 4.56 µM | – | – | – | –
COc1ccc(/C=N/Nc2ncc(Cl)c(Nc3cccc(NC(=O)/C=C/CN(C)C)c3)n2)cc1 | 6.24 µM | 1.58 µM | 4.82 µM | – | – | – | –
C=CC(=O)Nc1cccc(Nc2nc(N/N=C/c3ccc(F)cc3)ncc2Cl)c1 | 10.4 µM | 0.43 µM | 6.34 µM | 0.86 µM | 0.57 µM | 1.12 µM | > 20 µM
C=CC(=O)Nc1cccc(Nc2nc(N/N=C(\C)c3ccncc3)ncc2Cl)c1 | 28.7 µM | 3.69 µM | 12.8 µM | – | – | – | –
C/C(=N\Nc1ncc(Cl)c(Nc2cccc(NC(=O)/C=C/CN(C)C)c2)n1)c1ccc(F)cc1 | 8.96 µM | 1.16 µM | 10.2 µM | 2.35 µM | – | – | 15.3 µM
C=CC(=O)Nc1cccc(Nc2nc(N/N=C(\C)c3cccc(OC)c3)ncc2Cl)c1 | 10.3 µM | 1.19 µM | 8.99 µM | – | – | – | –
CN(C)C/C=C/C(=O)Nc1cccc(Nc2nc(N/N=C/c3ccncc3)ncc2Cl)c1 | 47.7 µM | 4.13 µM | 25.2 µM | – | – | – | –
C=CC(=O)Nc1cccc(Nc2nc(N/N=C(\C)c3ccc(C)cc3)ncc2Cl)c1 | 5.36 µM | 0.74 µM | 3.21 µM | 5.67 µM | – | – | > 20 µM
C=CC(=O)Nc1cccc(Nc2nc(N/N=C/c3cn(Cc4ccccc4)c4ccccc34)ncc2Cl)c1 | > 100 µM | 1.35 µM | 11 µM | – | – | – | –
Nc1cccc(Nc2nc(N/N=C/c3ccc(F)cc3)ncc2Cl)c1 | 13.7 µM | 9.92 µM | 12.3 µM | – | – | – | –
C/C(=N\Nc1ncc(Cl)c(Nc2cccc(NC(=O)/C=C/CN(C)C)c2)n1)c1ccccn1 | 0.83 µM | 0.077 µM | 0.12 µM | 2.38 µM | – | – | > 20 µM
C=CC(=O)Nc1cccc(Nc2nc(NNC(=O)c3ccc(F)cc3)ncc2Cl)c1 | 31 µM | 5.31 µM | – | – | – | – | –
CN(C)C/C=C/C(=O)Nc1cccc(Nc2nc(N/N=C/c3c[nH]c4ccccc34)ncc2Cl)c1 | 28.7 µM | 5.45 µM | 9.68 µM | > 20 µM | – | – | > 20 µM
C=CC(=O)Nc1cccc(Oc2nc(Nc3ccc(N4CCN(C)CC4)cc3OC)ncc2Cl)c1 | 1.87 µM | 0.058 µM | 2.95 µM | – | – | – | –
C=CC(=O)Nc1cccc(Nc2nc(N/N=C/c3ccccc3F)ncc2Cl)c1 | 6.06 µM | 0.29 µM | 3.5 µM | 1.51 µM | 1.91 µM | 4.74 µM | > 20 µM
C/C(=N\Nc1ncc(Cl)c(Nc2cccc(NC(=O)/C=C/CN(C)C)c2)n1)c1ccc(F)cc1F | 5.57 µM | 0.48 µM | 3.46 µM | 0.72 µM | 1.25 µM | 0.82 µM | > 20 µM
COc1ccc(/C(C)=N/Nc2ncc(Cl)c(Nc3cccc(NC(=O)/C=C/CN(C)C)c3)n2)cc1 | 7.12 µM | 0.99 µM | 6.83 µM | – | – | – | –
C/C(=N\Nc1ncc(Cl)c(Nc2cccc(NC(=O)/C=C/CN(C)C)c2)n1)c1ccc(C)cc1 | 10.8 µM | 1.37 µM | 11.8 µM | – | – | – | –
COc1cccc(/C(C)=N/Nc2ncc(Cl)c(Nc3cccc(NC(=O)/C=C/CN(C)C)c3)n2)c1 | 11.4 µM | 0.91 µM | 3.87 µM | – | – | – | –
C=CC(=O)Nc1cccc(Nc2nc(NNC(=O)c3ccc(OC)cc3)ncc2Cl)c1 | 26 µM | 8.46 µM | – | – | – | – | –
